Assay results published in ChEMBL document CHEMBL5674860, “Optimized Dual-Glo Assay to identify co-culture-induced drug vulnerabilities in 3D CRC models” (2024).

Legend:
Format in all cases: functional, Homo sapiens
Set-up in all cases: dose or concentration left out as unconfirmed
[1] = tested on: Colon cancer organoid; experiment: Optimized Dual-Glo assay to identify co-culture induced drug vulnerabilities using donated chemical probes and chemogenomics kinase set in O06 CRC organoid and F06 CAF mono and co-culture. […] Cell viability is reported both mono and co-culture models.
[2] = tested on: Colon cancer organoid; experiment: Optimized Dual-Glo assay to identify co-culture induced drug vulnerabilities using donated chemical probes and chemogenomics kinase set in O14 CRC organoid and F14 CAF mono and co-culture. […] Cell viability is reported both mono and co-culture models.
[3] = tested on: Colon cancer organoid; experiment: Optimized Dual-Glo assay to identify co-culture induced drug vulnerabilities using donated chemical probes and chemogenomics kinase set in O20 CRC organoid and F20 CAF mono and co-culture. […] Cell viability is reported both mono and co-culture models.
[4] = Culture type Co-Culture, Transduced with Lucferase2-P2A-EGFP lentivirus
[5] = Culture type Co-Culture, Transduced with Renilla-dsRed lentivirus
[6] = Culture type Mono-Culture, Transduced with Lucferase2-P2A-EGFP lentivirus
[7] = Culture type Mono-Culture, Transduced with Renilla-dsRed lentivirus

| SMILES | Cell Viability [1, 4] [%] | Cell Viability [1, 5] [%] | Cell Viability [1, 6] [%] | Cell Viability [1, 7] [%] | Cell Viability [2, 4] [%] | Cell Viability [2, 5] [%] | Cell Viability [2, 6] [%] | Cell Viability [2, 7] [%] | Cell Viability [3, 4] [%] | Cell Viability [3, 5] [%] | Cell Viability [3, 6] [%] | Cell Viability [3, 7] [%] |
| --- | --- | --- | --- | --- | --- | --- | --- | --- | --- | --- | --- | --- |
| O=C1CCc2cc(Nc3cc(OC4CCOCC4)c([N+](=O)[O-])cc3Cl)ccc2N1 | 112.978 | 126.115 | 116.283 | 106.249 | 95.0687 | 106.674 | 142.925 | 117.869 | 150.133 | 114.972 | 136.194 | 114.49 |
| C[C@@H](Oc1cc(-n2cnc3ccc(CN4CCN(C)CC4)cc32)sc1C(N)=O)c1ccccc1C(F)(F)F [GSK-461364] | 8.2073 | 127.3 | 6.274 | 91.647 | 37.954 | 173.445 | 46.1468 | 90.9348 | 36.0345 | 141.481 | 13.8424 | 71.1921 |
| c1ccc(C2CCN(c3cnc4c(N5CCOCC5)nccn34)CC2)cc1 | 98.2025 | 98.7191 | 229.272 | 111.241 | 111.149 | 110.22 | 155.031 | 89.751 | 90.2822 | 108.246 | 142.742 | 115.191 |
| Cn1cc(CNCC2CCN(c3ncc(C(=O)NO)cn3)CC2)c2ccccc21 [QUISINOSTAT] | 1.095 | 190.694 | 6.147 | 20.2291 | 0.9193 | 88.4975 | 0.7655 | 72.0368 | 1.342 | 37.1921 | 2.078 | 3.907 |
| CC1=C(C)C(=O)C(C(C)(C)CC(=O)N(CCCCSC[C@H]2O[C@@H](n3cnc4c(N)ncnc43)[C@H](O)[C@@H]2O)Cc2cccc(-c3ccc(Cl)cc3)c2)=C(C)C1=O | 117.447 | 138.552 | 64.6918 | 115.82 | 78.0162 | 155.416 | 78.4613 | 102.407 | 99.381 | 114.813 | 107.414 | 99.5191 |
| CC1CCN(c2ccnc(NCc3cn(C)cn3)n2)CC1 [TP-040] | 72.882 | 83.2209 | 105.865 | 110.509 | 87.8979 | 100.433 | 106.891 | 94.952 | 75.5826 | 95.0735 | 105.645 | 103.982 |
| CCc1cc(Nc2nccc(-c3c(-c4ccc(OC)c(C(=O)Nc5c(F)cccc5F)c4)nc4ccccn34)n2)c(OC)cc1N1CCC(N2CCN(S(C)(=O)=O)CC2)CC1 | 86.7992 | 78.7013 | 91.9397 | 111.569 | 94.7667 | 100.13 | 92.2589 | 95.6551 | 116.043 | 82.2783 | 81.9449 | 100.572 |
| COc1cc(C(=O)N2CC[C@@H](O)[C@@H](N)C2)cc2nc(-c3cc4ccccc4n3CC3CC3)n(C)c12.Cl | 124.227 | 121.721 | 98.6493 | 122.476 | 132.512 | 122.105 | 79.0484 | 89.8768 | 98.8385 | 114.018 | 83.2381 | 78.6997 |
| COc1ccccc1C(=O)Nc1cc2c(cc1N1CCCC1)n(C)c(=O)n2C |  |  |  |  | 94.3985 | 117.237 | 96.8906 | 95.8256 | 113.69 | 143.545 | 104.265 | 110.449 |
| CS(=O)(=O)N1CCN(Cc2cc3nc(-c4cccc5[nH]ncc45)nc(N4CCOCC4)c3s2)CC1 [PICTILISIB] | 43.124 | 60.0718 | 35.1251 | 58.2983 |  |  |  |  |  |  |  |  |
